Measured values reported in paper PMC11943913, “Peptides from Harpadon nehereus Bone Ameliorate Sodium Palmitate-Induced HepG2 Lipotoxicity by Regulating Oxidative Stress and Lipid Metabolism” (Marine Drugs, 2025).
“Also recorded” adds a separate entry of the source.

Key:
HepG2 cells [1] = assay: Oil Red O staining (fat accumulation); assay type: cell-based; conditions: 200×
Protocol: After incubation, the supernatants were discarded, and 2 mL of Oil Red O stationary solution was added to each well for 20–30 min. The stationary solution was subsequently washed away with 60% isopropyl alcohol. A freshly prepared Oil Red O staining solution was then applied for immersion dyeing lasting 10–20 min. After removing the staining solution with water, a Mayer hematoxylin staining solution was added for counterstaining the nucleus for 1–2 min before being discarded. An Oil Red O buffer solution was applied for 1 min and then discarded. […] The emission wavelength of fluorescence detection was 600 nm.

Nrf2 = assay: Western blot Nrf2; assay type: cell-based; conditions: HepG2, Western blot
Protocol: (§1) After treatment, cells were washed with pre-chilled PBS and lysed with ice-cold lysis buffer for 30 min. The supernatant was collected after centrifugation at 12,000× g for 10 min and stored at −80 °C. Protein concentration was determined using a BCA protein assay kit. Equal amounts of protein (20–40 µg) were subjected to 10% sodium dodecyl sulfate-polyacrylamide gel electrophoresis (SDS-PAGE) and transferred to PVDF membranes (Polyvinylidene Fluoride, Merck, Darmstadt, Germany). Non-specific binding sites were blocked with 5% bovine serum albumin (BSA) solution at room temperature for 1 h, followed by incubation with the primary antibody at 4 °C overnight. After washing with TBST (3 times, 10 min/time), the membrane was incubated with the secondary antibody at room temperature for 1 h. Following further washing with TBST (3 times, 10 min/time), antibody signals were detected using a Western blot development system. The dilution ratios for the internal reference protein, vascular endothelial injury-related proteins, and oxidative stress-related pathway proteins were prepared according to the manufacturer’s instructions.

[2] = system: high-density lipoprotein cholesterol (HDL-C); assay: HDL-C level in HepG2; assay type: cell-based
Protocol: (§2) After incubation, cells were treated with 100 μM of peptides for 4 h. After removing the media, PANa was added for 24 h of incubation. The levels of catalase (CAT), superoxide dismutase (SOD), glutathione peroxidase (GSH-Px), malondialdehyde (MDA), triacylglycerol (TG), total cholesterol (TCHO), low-density lipoprotein cholesterol (LDL-C), and high-density lipoprotein cholesterol (HDL-C) in the supernatant were determined according to the kit instructions.

[3] = system: phosphorylated ACC1 (p-ACC1); assay: Western blot p-ACC1; assay type: cell-based; conditions: HepG2, Western blot
Protocol: as §1

[4] = system: low-density lipoprotein cholesterol (LDL-C); assay: LDL-C level in HepG2; assay type: cell-based
Protocol: as §2

[5] = system: glutathione peroxidase (GSH-Px); assay: Glutathione peroxidase (GSH-Px) activity in HepG2; assay type: cell-based
Protocol: as §2

[6] = system: fatty acid synthase (FASN); assay: Western blot FASN; assay type: cell-based; conditions: HepG2, Western blot
Protocol: as §1

triacylglycerol (TG) = assay: Triacylglycerol (TG) level in HepG2; assay type: cell-based
Protocol: as §2

catalase (CAT) = assay: Catalase (CAT) activity in HepG2; assay type: cell-based
Protocol: as §2

[7] = system: adipose triglyceride lipase (ATGL); assay: Western blot ATGL; assay type: cell-based; conditions: HepG2, Western blot
Protocol: as §1

HepG2 cells [8] = assay: CCK-8 proliferation of HepG2 with PANa; assay type: cell-based; conditions: 1000 μM PANa, 24 h, CCK-8, p < 0.0001, 100% at 0 μM PANa
Protocol: After incubation, different concentrations (250, 500, 750, 1000 μmol/L) of PANa were added and treated for 24 h. The cell proliferation rates were measured according to the CCK-8 assay instructions.

[9] = system: Carnitine palmitoyl transferase 1 (CPT1); assay: Western blot CPT1; assay type: cell-based; conditions: HepG2, Western blot
Protocol: as §1

HepG2 cells [10] = assay: Observation of cell morphology; assay type: cell-based; conditions: 350 µM PANa 24 h, inverted microscope, 200×
Protocol: Cells grown in culture flasks underwent digestion to create a single-cell suspension that was then diluted with fresh medium before being transferred into six-well plates at a final concentration of 4 × 10^5/well (2 mL/well). Peptides at concentrations of 100 μM were introduced prior to adding PANa for a 4 h incubation. Following another 24 h culture period, cells were examined and photographed using an inverted microscope.

NQO1 = assay: Western blot NQO1; assay type: cell-based; conditions: HepG2, Western blot
Protocol: as §1

total cholesterol (TCHO) = assay: Total cholesterol (TCHO) level in HepG2; assay type: cell-based
Protocol: as §2

p-AMPKα = assay: Western blot p-AMPKα; assay type: cell-based; conditions: 350 µM PANa 24 h, HepG2, Western blot
Protocol: as §1

malondialdehyde (MDA) = assay: Malondialdehyde (MDA) level in HepG2; assay type: cell-based
Protocol: as §2

HO-1 = assay: Western blot HO-1; assay type: cell-based; conditions: HepG2, Western blot
Protocol: as §1

pancreatic lipase = assay: Pancreatic lipase activity inhibition; assay type: biochemical; conditions: compared with orlistat (positive control); 4-nitrophenyl palmitate substrate, lipase 1.2 mg/mL, peptide 100 μM, Tris-HCl pH 8.0, 37 °C, absorbance 405 nm, three parallel wells
Protocol: A working substrate solution consisting of 4-nitrophenyl palmitate dissolved in sodium acetate solution (containing 1% Triton-X 100, 100 mL, 5 mM, pH 5.0) was prepared. Enzyme powder was dissolved in Tris-HCl buffer (pH 8.0, 37 °C). This mixture was incubated at 4 °C for 2 h before centrifugation at 5000 r/min for 5 min, yielding the supernatant used to prepare a pancreatic lipase solution of 1.2 mg/mL. Orlistat at a concentration of 1 mg/mL in Tris-HCl buffer (pH 8.0; 37 °C) was prepared alongside DMSO to reach a concentration of 350 μg/mL peptide solution. The peptide solution of 100 μM was prepared with Tris-HCl buffer (pH = 8.0, 37 °C). The absorbance was measured at 405 nm, and the inhibition rate was measured in parallel with three holes due to the methodology of Franco et al..

[11] = system: proteins associated with lipid metabolism; assay: Western blot, proteins associated with lipid metabolism overall; assay type: cell-based; conditions: 100 μM peptide 4 h, then 350 µM PANa 24 h, HepG2, Western blot
Protocol: as §1

[12] = system: superoxide dismutase (SOD); assay: Superoxide dismutase (SOD) activity in HepG2; assay type: cell-based; conditions: 100 μM peptide 4 h, then 350 µM PANa 24 h
Protocol: as §2

HepG2 cells [13] = assay: CCK-8 proliferation of HepG2 with peptide alone; assay type: cell-based; conditions: concentrations below 200 µM, 24 h, CCK-8, n = 3
Protocol: HepG2 cells were cultured in DMEM supplemented with penicillin at a concentration of 100 U/mL, streptomycin at 100 μg/mL, and fetal bovine serum at a volume ratio of 10% under conditions of 37 °C and 5% CO2. A total of 2 ×10^4 cells per well were seeded into a 96-well plate for overnight culture. The upper layer of medium was carefully aspirated, and 200 μL of different concentrations of oligopeptide solution (50 μM, 100 μM, 200 μM) prepared with cell complete medium was added to each well. Twenty-four hours later, the proliferation rate of the cells was measured according to the instructions of the CCK-8 kit, and the appropriate concentration of oligopeptide was screened out.

hypertensive mice = conditions: earlier work, ref [22]; cited from earlier work
Excerpt: Harpadon nehereus, a nutrient-rich marine species indigenous to the Indo-Pacific region, remains underexploited despite its significant collagen content (18–22% wet weight). Harpadon nehereus serves as an economical source that is rich in protein and trace elements. Its proteins and derived peptides offer numerous health benefits including immune enhancement, blood pressure reduction, cardiovascular protection, and inflammation mitigation. In prior research, we successfully isolated three novel peptides LALFVPR (LR-7), KLHDEEVA (KA-8), and PSRILYG (PG-7) from the enzymatic hydrol ...

HepG2 = assay: Lipid levels in HepG2 (TG, TCHO, LDL-C, HDL-C) overall; assay type: cell-based; conditions: 100 μM peptide 4 h, then 350 µM PANa 24 h
Protocol: as §2

HepG2 cells [14] = assay: Cell viability of PANa-induced HepG2 (CCK-8); assay type: cell-based; conditions: 100 μM peptide 4 h, then 350 µM PANa 24 h, **** p < 0.0001 vs PANa group
Protocol: A total of 2 × 10^4 cells/well were inoculated in 96-well plates for culture at 37 °C and 5% CO2. Following this period, the cells received treatment with 200 μL medium containing 100 μM LR-7, KA-8, or PG-7 for 4 h before adding 350 μM PANa to each well. After incubation for an additional 24 h, the cell proliferation rates were assessed using the CCK-8 assay protocols.

[15] = 350 µM PANa 24 h, HepG2, p < 0.001
[16] = 350 µM PANa 24 h, HepG2, p < 0.0001
[17] = 100 μM peptide 4 h, then 350 µM PANa 24 h
[18] = 100 μM peptide 4 h, then 350 µM PANa 24 h, HepG2
[19] = 100 μM peptide 4 h, then 350 µM PANa 24 h, vs PANa group
[20] = 100 μM peptide 4 h, then 350 µM PANa 24 h, HepG2, p < 0.0001
[21] = 100 μM peptide 4 h, then 350 µM PANa 24 h, vs PANa group, p < 0.0001

CCCCCCCCCCCCCCCC(=O)[O-].[Na+] [PANa, Sodium palmitate]
fat droplet formation and accumulation, PANa vs Con group (HepG2 cells [1]; 350 µM PANa 24 h): evident rise in fat droplet formation and accumulation | Nrf2 protein expression, PANa vs Con group (Nrf2; 350 µM PANa 24 h): significant reduction | decrease in HDL-C level vs Con group [2, 15]: 51.7% | p-ACC1 level, PANa vs Con group ([3]; 350 µM PANa 24 h, p < 0.01): significantly reduced | increase in LDL-C level vs Con group [4, 16]: 58.3% | decrease in GSH-Px activity vs Con group [5, 15]: more than 20% | FASN expression, PANa vs Con group ([6]; 350 µM PANa 24 h): notable increase in FASN expression | increase in TG level vs Con group (triacylglycerol (TG); [16]): 124.1% | decrease in CAT activity vs Con group (catalase (CAT); [15]): more than 20% | ATGL expression, PANa vs Con group ([7]; 350 µM PANa 24 h, p < 0.05): markedly diminished | cell viability (HepG2 cells [8]): 33.3% | CPT1 expression, PANa vs Con group ([9]; 350 µM PANa 24 h, p < 0.05): markedly diminished | cell morphology, PANa group (HepG2 cells [10]): appeared loose, with a marked decrease in cell count and showed signs of apoptosis | NQO1 protein expression, PANa vs Con group (NQO1; 350 µM PANa 24 h): significant reduction | increase in TCHO level vs Con group (total cholesterol (TCHO); [16]): 48.4% | phosphorylation of AMPKα, PANa group (p-AMPKα): attenuate the phosphorylation of AMPKα | increase in MDA level vs Con group (malondialdehyde (MDA); [16]): 105% | HO-1 protein expression, PANa vs Con group (HO-1; 350 µM PANa 24 h): significant reduction

LALFVPR [LR-7, peptide from Harpadon nehereus bone collagen enzymatic hydrolysates]
fat accumulation relative to PANa group (HepG2 cells [1]; [17]): most significant reduction in fat accumulation | inhibition of pancreatic lipase activity (pancreatic lipase): superior inhibitory effects compared with orlistat | Nrf2 protein level (Nrf2; [17]): significant increases in the levels | HDL-C, effect on PANa-induced decrease [2, 18]: notably reversed | abnormal expression of proteins associated with lipid metabolism by PANa (FASN, ATGL, CPT1, p-AMPKα) [11]: significantly reversed | SOD activity, reversal of PANa-induced reduction [12]: effectively reversed the reduction | p-ACC1 level vs PANa group [3, 17]: p-ACC1 levels increased significantly | enhancement of p-ACC1 [3, 19]: 293.7% | LDL-C, effect on PANa-induced increase [4, 18]: notably reversed the PANa-induced increases | GSH-Px activity, reversal of PANa-induced reduction [5, 18]: effectively reversed the reduction | increase in GSH-Px activity vs PANa group [5, 20]: over 100% | FASN expression vs PANa group [6, 17]: FASN expression decreased | reduction in FASN level [6, 19]: 59.6% | TG, effect on PANa-induced increase (triacylglycerol (TG); [18]): notably reversed the PANa-induced increases | CAT activity, reversal of PANa-induced reduction (catalase (CAT); [18]): effectively reversed the reduction | increase in CAT activity vs PANa group (catalase (CAT); [20]): over 100% | enhancement of ATGL level [7, 21]: 148.1% | enhancement of CPT1 level [9, 21]: 134.7% | effect on apoptosis of HepG2 cells (HepG2 cells [13]): no effect on the apoptosis of HepG2 cells | NQO1 protein level (NQO1; [17]): significant increases in the levels | increase in NQO1 level (NQO1; [21]): 120% | TCHO, effect on PANa-induced increase (total cholesterol (TCHO); [18]): notably reversed the PANa-induced increases | MDA level (malondialdehyde (MDA); [18]): decreased to values similar to those observed in the Con group; also recorded: significantly decreased the MDA levels | protection against cardiovascular injuries in hypertensive mice (hypertensive mice): protective qualities against cardiovascular injuries in hypertensive mice | lipid-lowering impact, ranking among the three peptides (HepG2): the most effective lipid-lowering impact | HO-1 protein level (HO-1; [17]): significant increases in the levels | increase in HO-1 level (HO-1; [21]): 131.7% | cell viability of PANa-exposed HepG2 (HepG2 cells [14]): notably enhanced the cell viability
